Results from patent US7759350B2, “Pyrimidine carboxamides” (Orchid Research Laboratories Ltd., priority 2005, dated 2010).
Values belong to the compound of their own block, whether it stands above or below them.

Key:
NCI-H460 = assay: Anti-cancer screen (MTT), NCI-H460; format: cell-based
Experimental: (§1) Experimental drugs are screened for anti-cancer activity in three cell lines for their GI50, TGI and LC50 values (using five concentrations for each compound). The cell lines are maintained in DMEM containing 10% fetal bovine serum. 96 well microtiter plates are inoculated with cells in 100 μL for 24 h at 37° C., 5% CO2, 95% air and 100% relative humidity. 5000 HCT116 cells/well, 5000 NCIH460 cells/well, 10000 U251 cells/well and 5000 MDAMB231 cells/well are plated. A separate plate with these cell lines is also inoculated to determine cell viability before the addition of the compounds (T0).
Following 24 hours incubation, experimental drugs are added to the 96 well plates. […] Compounds are dissolved in dimethylsulfoxide (DMSO) to make 20 mM stock solutions on the day of drug addition and frozen at −20° C. […] Standard drugs whose anti-cancer activity has been well documented and which are regularly used are doxorubicin and SAHA.
(§2) Cells are incubated with compounds for 48 hours followed by the addition of 10 μL 3-(4,5-Dimethyl-2-thiazolyl)-2,5-diphenyl-2H-tetrazolium (MTT) solution per well and a subsequent incubation at 37° C., 5% CO2, 95% air and 100% relative humidity, protected from light. After 4 hours, well contents are aspirated carefully followed by addition of 150 μL DMSO per well. Plates are agitated to ensure solution of the formazan crystals in dimethylsulphoxide and absorbance read at 570 nm.
Percent growth is calculated for each compound's concentration relative to the control and zero measurement wells (To; viability right before compound addition). If a test well's O.D. value is greater than the To measurement for that cell line % Growth=(test−zero)/(control−zero)×100
If a test well's O.D. value is lower than the T0 measurement for that cell line, […]

MDAMB-231 = assay: Anti-cancer screen (MTT), MDAMB-231; format: cell-based; settings: Homo sapiens, MDA-MB-231, 48 hours
Experimental: as §1
Following 24 hours incubation, experimental drugs are added to the 96 well plates. […]
as §2, with “After 4 hours, well contents are aspirated carefully followed by addition of 150 μL DMSO per well.” left out
(§3) Percent growth is calculated for each compound's concentration relative to the control and zero measurement wells (To; viability right before compound addition). […]

COX-2 = target: T1, COX-2 (Homo sapiens, UniProt P35354); assay: Human whole blood assay, COX-2 inhibition (PGE2 after LPS); format: cell-based; settings: LPS stimulated
T1 construct: Fresh blood was collected in tubes containing sodium heparin by vein puncture from healthy male volunteers; endogenous in cells; host or cells: human whole blood from healthy male volunteers, stimulated with LPS
T1 sequence (P35354 18-604): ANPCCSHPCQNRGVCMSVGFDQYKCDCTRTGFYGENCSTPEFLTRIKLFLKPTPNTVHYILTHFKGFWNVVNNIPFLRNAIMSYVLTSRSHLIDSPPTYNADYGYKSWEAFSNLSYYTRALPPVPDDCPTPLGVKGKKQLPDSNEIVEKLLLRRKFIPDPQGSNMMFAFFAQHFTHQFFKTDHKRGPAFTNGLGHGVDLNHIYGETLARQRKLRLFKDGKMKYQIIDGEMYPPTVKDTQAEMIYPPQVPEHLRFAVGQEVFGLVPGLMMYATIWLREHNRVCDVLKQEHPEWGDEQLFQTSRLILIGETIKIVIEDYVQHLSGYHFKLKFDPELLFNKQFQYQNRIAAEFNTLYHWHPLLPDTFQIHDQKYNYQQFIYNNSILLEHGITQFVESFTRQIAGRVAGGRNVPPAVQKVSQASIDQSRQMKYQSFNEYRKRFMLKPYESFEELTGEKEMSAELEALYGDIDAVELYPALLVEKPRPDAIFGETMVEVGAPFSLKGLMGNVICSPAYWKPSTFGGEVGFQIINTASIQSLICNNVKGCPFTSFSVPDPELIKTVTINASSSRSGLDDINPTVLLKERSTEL
Experimental: Human whole blood provides a protein and cell rich milieu appropriate for the study of biochemical efficacy of anti-inflammatory compounds such as selective COX-2 inhibitors. […] This is correlating with the observation that COX-2 inhibitors have no effect on prostaglandin E2 (PGE2) production in normal blood. These inhibitors were active only after incubation of human blood with lipopolysaccharide (LPS), which induces COX-2 production in the blood.
Fresh blood was collected in tubes containing sodium heparin by vein puncture from healthy male volunteers. […] Then test compounds (at various concentrations) or vehicle were added to blood. After that blood was stimulated with LPS B: 4 (10 μg/ml) and incubated for another 18 hours at 37° C. water bath. After which the blood was centrifuged, plasma was separated and stored at −80° C. (J. Pharmacol. Exp. Ther, 271, 1705, 1994; Proc. Natl. Acad. Sci. USA., 96, 7563, 1999). The plasma was assayed for PGE2 using Cayman ELISA kit as per the procedure outlined by the manufacturer (Cayman Chemicals, Ann Arbor, USA).

MCF-7 = assay: Anti-cancer screen (MTT), MCF-7; format: cell-based
Experimental: [The source words this procedure for another cell line and reports this cell line under the same test.] as §1
(§4) Following 24 hours incubation, experimental drugs are added to the 96 well plates. Each plate contains one of the above cell lines and the following in triplicate: five different concentrations (0.01, 0.1, 1, 10 and 100 μM) of four different compounds, appropriate dilutions of a cytotoxic standard and control (untreated) wells. Compounds are dissolved in dimethylsulfoxide (DMSO) to make 20 mM stock solutions on the day of drug addition and frozen at −20° C. Serial dilutions of these 20 mM stock solutions are made in complete growth medium such that 100 μL of these drug solutions in medium, of final concentrations equaling 0.01, 0.1, 1, 10 and 100 μM can be added to the cells in triplicate. Standard drugs whose anti-cancer activity has been well documented and which are regularly used are doxorubicin and SAHA.
as §2, §3

SF-268 = assay: Anti-cancer screen (MTT), SF-268; format: cell-based
Experimental: [The source words this procedure for another cell line and reports this cell line under the same test.] as §1, §4, §2, §3

IL-6 = assay: In vitro measurement of IL-6 in human PBMC; format: cell-based; settings: Conc. 0.1 μM, LPS
Experimental: (§5) In vitro Measurement of Interleukin-6 (IL-6) & Interleukin-1β (IL1β)
(§6) This assay determines the effect of test compounds on the production of IL-6 and IL1β in human PBMC (Physiol. Res. 52: 593-598, 2003). Compounds were tested for their ability to inhibit the activity of IL-6 and IL1β in human PBMC. PBMC were isolated from blood using BD Vacutainer CPT™ Cell preparation tube (BD Bio Science) and suspended in RPMI medium. The test compounds were preincubated with PBMC (0.5 million/incubation well) for 15 minutes at 37° C. and then stimulated with Lipopolysaccharide (Escherichia coli: B4; 1 μg/ml) for 18 hours at 37° C. in 5% CO2. The levels of IL-6 and IL1β in cell culture medium were estimated using enzyme linked Immunosorbent assay performed in a 96 well format as per the procedure of the manufacturer (R&D Systems, Inc. 614 McKinley Place Nebr., Minneapolis, Minn. 55413, USA).

IL-1β = assay: In vitro measurement of IL-1β in human PBMC; format: cell-based; settings: Conc. 0.1 μM, LPS
Experimental: as §5, §6

[1] = system: Carrageenan induced paw edema in rat; assay: Carrageenan induced paw edema test in rat; format: in vivo; settings: 5 mg/kg oral; male wistar rats; 3 hours after carrageenan
Experimental: Carrageenan Induced Paw Edema Test in Rat
The carrageenan paw edema test was performed as described by Winter et al (Proc. Soc. Exp. Biol. Med, 111, 544, 1962). Male wistar rats were selected with body weights equivalent within each group. The rats were fasted for eighteen hours with free access to water. The rats were dosed orally with the test compound suspended in vehicle containing 0.25% carboxymethylcellulose and 0.5% Tween 80. The control rats were administered with vehicle alone. After an hour, the rats were injected with 0.1 ml of 1% Carrageenan solution in 0.9% saline into the sub-plantar surface of the right hind paw. Paw volume was measured using digital plethysmograph before and after 3 hours of carrageenan injection. The average of foot swelling in drug treated animals was compared with that of control animals. Anti-inflammatory activity was expressed as the percentage inhibition of edema compared with control group [Arzneim-Forsch/Drug Res., 43 (I), 1,44-50,1993; Otterness and Bliven, Laboratory Models for Testing NSAIDs, In Non-Steroidal Anti-Inflammatory Drugs, (J. Lombardino, ed. 1985)].

- GI50 (NCI-H460; Homo sapiens, NCI-H460, 48 hours, MTT): 5.5 µM
- GI50 (MDAMB-231): 0.1 µM
SMILES: CNc1nc(-c2ccncc2)nc(SC)c1C(=O)Nc1ccc(C)c(C)c1 [Example 25, N-(3,4-Dimethylphenyl)-4-(methylamino)-6-(methylthio)-2-pyridin-4-ylpyrimidine-5-carboxamide]

- inhibition at 10 µM (COX-2; Conc. 10 μM): 29.2%
SMILES: CNc1nc(-c2ccc(SC)cc2)nc(SC)c1C(=O)Nc1ccc(C)c(C)c1 [Example 9, N-(3,4-Dimethylphenyl)-4-(methylamino)-6-(methylthio)-2-[4-(methylthio)phenyl]pyrimidine-5-carboxamide]
- Percentage growth Lung NCI-H460 (NCI-H460; Conc. 100 μM): 0%
- Percentage growth Breast MCF-7 (MCF-7; Conc. 100 μM): 6%
- Percentage growth CNS SF-268 (SF-268; Conc. 100 μM): 5%

- inhibition at 0.25 µM (COX-2; Conc. 0.25 μM): 36.8%
SMILES: CNc1nc(-c2ccc(SC)cc2)nc(SC)c1C(=O)Nc1ccc(C)cc1 [Example 5, 4-(Methylamino)-N-(4-methylphenyl)-6-(methylthio)-2-[4-(methylthio)phenyl]pyrimidine-5-carboxamide]
- inhibition at 0.1 µM (IL-6): 14.9%
- IL-1β Inhibition (%) (IL-1β): Not active
- Percentage growth Lung NCI-H460 (NCI-H460; Conc. 50 μM): 48%
- Inhibition of edema (%) at 5 mg/kg [1]: 53.07%
- Percentage growth Breast MCF-7 (MCF-7; Conc. 50 μM): 160%
- Percentage growth CNS SF-268 (SF-268; Conc. 50 μM): 106%
